From publication PMC10985144, “Design, synthesis, and evaluation of the novel ozagrel–paeonol codrug with antiplatelet aggregation activities as a potent anti-stroke therapeutic agent” (Frontiers in Pharmacology, 2024)
Where “and” joins values, the source holds several entries; their conditions need not be identical. Equal values may be shown once. Read-outs that look alike come from different tables or passages of the source.

Assays:
[1] = tested on: ADP-induced platelet aggregation; assay: ADP-induced platelet aggregation (antiplatelet aggregation activity); assay type: cell-based; conditions: platelet aggregation induced by ADP (10 μM); mean ± SD, n = 5
Protocol: (§1) The antiplatelet aggregation activity of the target compounds was evaluated against ADP- and AA-induced platelet aggregation. In other words, different concentrations of the target compound solution and POC ([Zhang J. et al., 2021]) (10 μL) were added to the plasma at 37°C for 5 min. Then, platelets were stimulated with ADP (10 μM, 30 μL) or AA (1 mM, 30 μL). Variations in absorbance were monitored for 5 min in order to measure platelet aggregation ([Daron et al., 2022]). The platelet aggregation inhibition rate (AIR) was calculated according to the following formula: AIR = (rate of aggregation (control)−rate of aggregation (compounds))/rate of aggregation (control) × 100%

[2] = tested on: AA-induced platelet aggregation; assay: AA-induced platelet aggregation (antiplatelet aggregation activity); assay type: cell-based; conditions: platelet aggregation induced by AA (1 μM); mean ± SD, n = 5
Protocol: as §1, with “Then, platelets were stimulated with ADP (10 μM, 30 μL) or AA (1 mM, 30 μL).” left out

[3] = Pharmacokinetic study after single i.g. or i.v. administration to rats; assay type: in vivo; conditions: for AUC(0-t) / AUC(0-∞) / half-life / MRT last: single 6.4 mg/kg, mean ± SD; for AUC(0-t) / AUC(0-∞) / half-life: n = 6; for MRT last: n = 6, read-out: MRT (0-t) (converted)
Protocol: Six rats were given compound 8b (6.4 mg/kg) ([Zhang J. et al., 2021]) by intravenous injection (i.v.) and intragastric administration (i.g.), respectively. The animal experiment protocol was performed according to the guidelines for animal experiments and supervised by the Experimental Animal Ethics Committee of Anhui University of Chinese Medicine (AHUCM-rats-2019001). Then, approximately 1.0 mL of blood was taken from the orbital venous plexus of the rats and placed into an EP-containing heparin at predetermined time points of 3, 5, 10, 20, 30, 45, 60, 120, and 240 min after dosing. The blood sample was centrifuged for 15 min at 3,500 rpm to obtain plasma. For plasma preparation, 180 μL of plasma was mixed with 20 μL of glibenclamide as an internal standard and 900 μL of acetonitrile. The mixture was then centrifuged at 12,000 rpm for 10 min. After centrifugation, 800 μL of the supernatant was dried using a vacuum freeze dryer. The dried sample was then reconstituted with 200 μL of acetonitrile for LC/MS analysis. The analytical conditions for the plasma samples are as follows: a Hypersil GOLD C8 HPLC Column (2.1 mm × 100 mm, 1.9μm; Thermo Fisher Scientific, United States) was used for chromatographic separation. The column temperature was maintained at 30°C, and the sample chamber temperature was maintained at 4°C. A gradient elution with a flow rate of 0.2 mL/min (phase A: 0.1% formic acid, phase B: methanol) was carried out from 45% B to 80% within 2.5 min, then from […] to 90% within 1 min, and maintained at 90% for 1 min; subsequently, it was decreased from 90% to 45% in 30 s and maintained for 1 min. Multiple-reaction monitoring (MRM) was quoted as the acquisition mode of mass spectrometry in a positive ionization mode. The mass spectrometry detector was equipped with an electrospray ionization (ESI) source. The optimal MS parameters were as follows: the ion source temperature was set at 400°C, the vaporization temperature was set at 500°C, the electrospray voltage was set to 5500 V, and the capillary voltage was set to 3600 V. The ion pair of 8b is m/z 517.0 and 281.4, and the declustering voltage is 120 eV; the collision energy is 40 eV. Similarly, the ion pair of glibenclamide is m/z 494.1 and 169.0, the declustering voltage is 65 eV, and the collision energy is 50 eV.

PC12 cells = assay: Viability of PC12 cells, CCK-8 assay; assay type: cell-based, rat; conditions: 24 h
Protocol: (§2) For the cell culture conditions, rat pheochromocytoma PC12 cells (ATCC, Manassas, VA, United States) were cultured in RPMI 1640 culture medium with 1% penicillin and streptomycin and 10% fetal bovine serum (FBS) (Gibco, Waltham, MA, United States) at 37°C with 5% CO2.
Cell viability was assessed using a CCK-8 assay. The PC12 cells were seeded in a 96-well plate at a density of 1 × 10^5 cells per well. After incubation for 24 h, the cells were treated with various concentrations of the compound. After 24 h of re-incubation, the cell viability was evaluated using a 10% CCK-8 solution. The absorbance value was determined at 450 nm.

OGD/R PC12 cells = assay: Protective effect on OGD/R PC12 cells (oxygen-glucose deprivation), CCK-8; assay type: cell-based; conditions: Rattus norvegicus, mean ± SD, n = 5, read-out: Cell viability (%)
Protocol: as §2
For oxygen-glucose deprivation of PC12 cell activity, the procedure was conducted as follows ([Wei et al., 2022]): the cells were cultured in a 96-well plate for 24 h. Then, the culture medium was replaced with oxygen–glucose-free RPMI 1640 and placed in an incubator with 5% CO2 and 95% N2 for 2 h. Once the oxygen-free process was completed, the culture medium was changed back to RPMI 1640 and maintained at 37°C with 5% CO2 for an additional 24 h. Cell viability was then assessed using the CCK-8 assay.

[4] = set-up: method as in Zhang J. et al., 2021; conditions: found in the authors' previous study; ref Zhang J. et al., 2021; cited from earlier work

Question: Which IC50 [1] does the source give for O=C(O)/C=C/c1ccc(Cn2ccnc2)cc1 [Ozagrel, (E)-sodium 4-(1-imidazolomethyl) cinnamate] here?
Answer: > 1000 µM

Question: What about the IC50 [2] of the same compound?
Answer: 52.5 ± 3.29 µM

Question: With COc1ccc(C(C)=O)c(OCCCN2CCN(C(=O)C=Cc3ccc(Cn4ccnc4)cc3)CC2)c1 [PNC2] as the compound, how does the IC50 [1] read?
Answer: > 1000 µM

Question: And the IC50 [2]?
Answer: 462 ± 28.7 µM

Question: What does the source list for COc1ccc(C(C)=O)c(OCCCCN2CCN(C(=O)C=Cc3ccc(Cn4ccnc4)cc3)CC2)c1 [PNC3]?
Answer: IC50 [1]: 485 ± 31.1 µM; IC50 [2]: 74.7 ± 4.86 µM; time remained detectable in the blood ([3]; i.g.): up to 8 h; MRT i.g. relative to i.v. ([3]; i.g. longer than i.v.): 2.11 times; t1/2 i.g. relative to i.v. ([3]; i.g. longer than i.v.): 2.33 times; AUC(0-t) ([3]; i.g.): 6148.338 ± 2222.737 µg·min/L; AUC(0-∞) ([3]; i.g.): 8346.219 ± 3,719.156 μg/L*min; time within which peak concentration was visible ([3]; i.v.): ≤ 6 h; AUC(0-t) ([3]; i.v.): 18,552.773 ± 7438.264 μg/L*min; AUC(0-∞) ([3]; i.v.): 19,250.669 ± 7673.11 μg/L*min; half-life ([3]; rat, plasma, iv): 2.08 ± 0.295 h; MRT last ([3]; rat, plasma, iv): 2.5 h; Tmax ([3]; rat, plasma, po, 6.4 mg/kg, i.g., read-out: time of peak concentration in the blood): 1 h; half-life ([3]; rat, plasma, po, i.g.): 4.85 ± 1.74 h; MRT last ([3]; rat, plasma, po, i.g.): 5.28 h; AUC by i.g. relative to i.v. ([3]; ratio of AUC(0-t) i.g. vs i.v., 6.4 mg/kg): 33.3% and 33.1%; impact on cell viability (PC12 cells; 0–0.16 μM): no impact on cell viability; cell survival rate (PC12 cells; 0.08 μM): 97.52%; cell survival rate (PC12 cells; concentration exceeded 0.16 μM): 94.03%; viability at 0.02 µM (OGD/R PC12 cells; PC-12, 0.02 μM): 50.5 ± 2.95%; viability at 0.04 µM (OGD/R PC12 cells; PC-12, 0.04 μM): 54.2 ± 2.68%; viability at 0.08 µM (OGD/R PC12 cells; PC-12, 0.08 μM): 62.3 ± 3.14%

Question: Which IC50 [1] does the source give for COc1ccc(C(C)=O)c(OCCCCCN2CCN(C(=O)C=Cc3ccc(Cn4ccnc4)cc3)CC2)c1 [PNC4] here?
Answer: > 1000 µM

Question: What about the IC50 [2] of the same compound?
Answer: 692 ± 45.7 µM

Question: Which results are given for COc1ccc(C(C)=O)c(OCCCNC(=O)C=Cc2ccc(Cn3ccnc3)cc2)c1 [PNC5, 3-(4-((1H-imidazol-1-yl)methyl)phenyl)-N-(3-(2-acetyl-5-metho-xyphenoxy)propyl)acrylamide]?
Answer: IC50 [1]: > 1000 µM; IC50 [2]: 234 ± 16.6 µM

Question: For COc1ccc(C(C)=O)c(OC(=O)C=Cc2ccc(Cn3ccnc3)cc2)c1 [POC, reference compound], which IC50 [1] is on record?
Answer: 842 ± 53.3 µM

Question: And the IC50 [2]?
Answer: 349 ± 16 µM

Question: What about the stability [4] of the same compound?
Answer: unstable
